Data from US10173990B2, “URAT1 inhibitor” (Nippon Chemiphar Co., Ltd., priority 2014, dated 2019).

Target: URAT1 (Homo sapiens (Human), UniProt Q96S37)
Assay: Uptake of [14C] uric acid using HEK-URAT1
Format: cell-based
Details: for remaining activity at 10 µM: 2 min, [14C] uric acid uptake into URAT1 stably expressed HEK293 cells, 10 μM test compound, 5 μM uric acid, 2 minutes, 37° C., uptake without test compound = 100%, read-out: % control (10 μM); for IC50: inhibition of [14C] uric acid uptake into URAT1 stably expressed HEK293 cells
Description: More specifically, the test is performed by culturing URAT1 stably expressed HEK293 cells (HEK-URAT1) or HEK293 cells transfected with empty vector (HEK-mock) in a DMEM culture medium in an incubator. Subsequently, 1×10^5 cells are respectively seeded in 24-well culture plate coated with poly D-lysine and the uptake test is started after the culturing.
The cells are washed with a solution for a test warmed to 37° C. and equilibrated. After a buffer solution is removed from the cells, 0.5 mL of an uptake solution containing 5 μM [^14C] uric acid with or without a test compound is respectively added and the cells are incubated. The cell uptake is stopped by adding a Hanks buffer solution and the cells are washed. The cells are lysed with 0.1 N sodium hydroxide and the radioactivity is measured using LSC6100 (Aloka Co., Ltd. Tokyo). Each uptake into HEK-URAT1 is acquired by subtracting uptake into HEK-mock cells from the value of HEK-URAT1, converting the result to per mg protein of cells, and setting the values from the uptake without the test compound as 100%.
URAT1 stably expressed HEK293 cells (HEK-URAT1) or HEK293 cells transfected with empty vector (HEK-mock) were cultured in DMEM culture medium supplemented with 10% fetal bovine serum in an incubator under conditions of 5% carbon dioxide at 37° C. Subsequently, 1×10^5 cells were respectively seeded in 24-well culture plate coated with poly D-lysine and the uptake test was started after the culturing for 3 days.
The uptake experiment of uric acid was performed at 37° C. […] After a buffer solution was removed from the cells, 0.5 mL of an uptake solution containing 5 μM [^14C] uric acid with or without a test compound was respectively added and the cells were incubated for 2 minutes. The cell uptake was stopped by adding an ice-cold Hanks buffer solution without chloride ions and the cells were washed 3 times. The cells were lysed with 0.1 N sodium hydroxide and the radioactivity was measured using LSC6100 (Aloka Co., Ltd. Tokyo). Each uptake into HEK-URAT1 was acquired by subtracting uptake into HEK-mock cells from the value of HEK-URAT1, converting the result to per mg protein of cells, and setting the value from uptake without the test compound as 100%. The uptake in each condition was performed in triplicate and each value was represented by average±standard deviation.
The URAT1 inhibitory action was measured according to the same method as in Example 118.

Chain of URAT1 (Q96S37 whole entry): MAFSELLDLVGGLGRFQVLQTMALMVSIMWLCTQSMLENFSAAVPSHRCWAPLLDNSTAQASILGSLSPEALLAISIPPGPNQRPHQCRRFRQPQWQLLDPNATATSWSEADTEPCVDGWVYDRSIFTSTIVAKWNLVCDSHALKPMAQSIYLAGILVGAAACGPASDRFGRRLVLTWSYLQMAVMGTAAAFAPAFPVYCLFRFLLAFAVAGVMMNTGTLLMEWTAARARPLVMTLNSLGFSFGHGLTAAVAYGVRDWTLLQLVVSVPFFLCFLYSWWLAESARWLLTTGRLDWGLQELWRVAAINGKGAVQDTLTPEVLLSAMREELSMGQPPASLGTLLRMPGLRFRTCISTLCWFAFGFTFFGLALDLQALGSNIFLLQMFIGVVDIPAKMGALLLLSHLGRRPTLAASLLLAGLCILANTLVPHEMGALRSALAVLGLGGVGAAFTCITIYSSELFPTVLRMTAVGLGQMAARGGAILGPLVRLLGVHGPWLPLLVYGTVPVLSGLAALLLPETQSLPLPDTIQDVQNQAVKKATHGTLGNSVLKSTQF

SMILES | remaining activity at 10 µM [%] | IC50 [nM]
CC(C)(Sc1ccc2cnsc2c1-c1cccc(C#N)c1)C(=O)O [Example 84, 2-[[7-(3-Cyanophenyl)benzo[d]isothiazol-6-yl]thio]-2-methylpropanoic acid] | 2.3 | 205
N#Cc1ccc(-c2c(O/C=C\C(=O)O)ccc3ccccc23)cc1 [Example 7, (Z)-3-[[1-(4-Cyanophenyl)naphthalen-2-yl]oxy]acrylic acid] | 29.5 | –
CC(C)(Oc1c(-c2ccc(C#N)cc2)ccc2ncsc12)C(=O)O [Example 37, 2-[[6-(4-Cyanophenyl)benzo[d]thiazol-7-yl]oxy]-2-methylpropanoic acid] | 78.6 | –
N#Cc1ccc(-c2c(SC3(C(=O)O)CCC3)ccc3cnsc23)cc1 [Example 66, 1-[[7-(4-Cyanophenyl)benzo[d]isothiazol-6-yl]thio]cyclobutan-1-carboxylic acid] | 1.8 | 21.5
CC(C)(Sc1ccc2cnsc2c1-c1ccc(C#N)cc1)C(=O)O [Example 28, 2-[[7-(4-Cyanophenyl)benzo[d]isothiazol-6-yl]thio]-2-methylpropanoic acid] | 0.1 | –
CCC(CC)(Sc1ccc2cnsc2c1-c1ccc(C#N)cc1)C(=O)O [Example 113, 2-[[7-(4-Cyanophenyl)benzo[d]isothiazol-6-yl]thio]-2-ethylbutanoic acid] | < 0.1 | 21
CC(C)(Oc1ccc2ncsc2c1-c1ccc(C#N)cc1)C(=O)O [Example 19, 2-[[7-(4-Cyanophenyl)benzo[d]thiazol-6-yl]oxy]-2-methylpropanoic acid] | 15.6 | –
CC(C)(Oc1ccc2cnsc2c1-c1ccc(C#N)cc1)C(=O)O [Example 26, 2-[[7-(4-Cyanophenyl)benzo[d]isothiazol-6-yl]oxy]-2-methylpropanoic acid] | 11.6 | –
CC(C)(Sc1ccc2cnsc2c1-c1ccc(Cl)cc1)C(=O)O [Example 82, 2-[[7-(4-Chlorophenyl)benzo[d]isothiazol-6-yl]thio]-2-methylpropanoic acid] | < 0.1 | 106
CC(C)(Sc1ccc2cnsc2c1-c1ccc(C(F)(F)F)cc1)C(=O)O [Example 78, 2-Methyl-2-[[7-[4-(trifluoromethyl)phenyl]benzo[d]isothiazol-6-yl]thio]propanoic acid] | 3.2 | 104
Cc1nc2ccc(SC(C)(C)C(=O)O)c(-c3ccc(C#N)cc3)c2s1 [Example 62, 2-[[7-(4-Cyanophenyl)-2-methylbenzo[d]thiazol-6-yl]thio]-2-methylpropanoic acid] | 49 | –
CC(C)(Sc1c(-c2ccc(C#N)cc2)cnc2ccccc12)C(=O)O [Example 45, 2-[[3-(4-Cyanophenyl)quinolin-4-yl]thio]-2-methylpropanoic acid] | 36.5 | 1580
N#Cc1ccc(-c2c(SC3(C(=O)O)CCCC3)ccc3cnsc23)cc1 [Example 68, 1-[[7-(4-Cyanophenyl)benzo[d]isothiazol-6-yl]thio]cyclopentan-1-carboxylic acid] | < 0.1 | 26.2
CC(C)(Sc1ccc2ncsc2c1-c1ccc(OC(F)(F)F)cc1)C(=O)O [Example 64, 2-Methyl-2-[[7-[4-(trifluoromethoxy)phenyl]benzo[d]thiazol-6-yl]thio]propanoic acid] | 30.1 | –
O=C(O)/C=C/Oc1ccc2ccccc2c1-c1cccnc1 [Example 10, (E)-3-[[1-(Pyridin-3-yl)naphthalen-2-yl]oxy]acrylic acid] | 27.1 | –
CC(C)(Sc1ccc2cnsc2c1-c1ccc([N+](=O)[O-])cc1)C(=O)O [Example 72, 2-Methyl-2-[[7-(4-nitrophenyl)benzo[d]isothiazol-6-yl]thio]propanoic acid] | < 0.1 | 12
CC(C)(Sc1ccc2ccccc2c1-c1ccc(C#N)c2ccccc12)C(=O)O [Example 4, 2-[(4′-Cyano[1,1′-binaphthalene]-2-yl)thio]-2-methylpropanoic acid] | 15.1 | 790
CC(C)(Sc1ccc2ncccc2c1-c1ccc(C#N)cc1)C(=O)O [Example 15, 2-[[5-(4-Cyanophenyl)quinolin-6-yl]thio]-2-methylpropanoic acid] | 50.1 | 3440
CC(C)(Oc1ccc2ccccc2c1-c1ccc(C#N)c2ccccc12)C(=O)O [Example 2, 2-[(4′-Cyano-(1,1′-binaphthalene)-2-yl]oxy]-2-methylpropanoic acid] | 45.4 | 2060
